The test system of series [1] is matrix metalloproteinase-1 (MMP-1) mRNA. As to the kind of experiment: mRNA level corresponding to MMP-1 (RT-PCR) in HAECs. As to conditions: 500 μM palmitic acid, 24 h. The format is cell-based, human. The protocol:
(§1) Human aortic endothelial cells (HAECs) were purchased from Shanghai Shanghai Bioleaf Biotech Co., Ltd. Palmitic acid (PA) was purchased from SIGMA Company. A palmitic acid solution having a concentration of 500 μM was prepared by dissolving palmitic acid in water. A cell culture incubator was adopted to culture the cells in a temperature-constant, humidified, sterile condition. The cells were cultured in wells of culture plates at an atmosphere of 95% air and 5% CO2 at 37° C. in the incubator. The experiments were performed on different experimental groups of cells. […]
(§2) The HAECs that were previously cultured in a 12-well cell culture plate were divided into 5 different experimental groups and respectively applied with hydroxytyrosol acetate in respective concentrations, 0 μM, 0 μM, 10 μM, 50 μM, and 100 μM, all followed with an 24-hour incubation. […] The detecting of mRNA levels corresponding to interleukin-6 (IL-6), matrix metalloproteinase-1 (MMP-1), intercellular adhesion molecule-1 (ICAM-1) and plasma plasminogen activator inhibitor-1 (PAI-1) were respectively carried out on each group of cells by using reverse transcription RNA and real-time quantitative polymerase chain reaction (PCR), and the specific method is as follows:
(§3) The medium for cell culture in the wells was removed. […] The concentration of the solution was measured by an ultraviolet spectrophotometer. […]

Series [2] has as its system interleukin-6 (IL-6) mRNA. Kind of series: mRNA level corresponding to IL-6 (RT-PCR) in HAECs. The format is cell-based, human. As to conditions: 500 μM palmitic acid, 24 h. The protocol: as §1, §2, §3
In series [3] the test system is mitochondrial membrane fusion-related proteins Mfn1, Mfn2. Kind of series: Western blot of mitochondrial membrane fusion-related proteins in HAECs. The series is classed as cell-based, human. The protocol: as §1, with “cells. The experiments were performed on three experimental groups of cells: (1) control group; (2) 500 μM palmitic acid treatment group; and (3) hydroxytyrosol acetate protection group.” for “cells.”
The medium for cell culture in the wells was removed. […] The supernatants were collected, and the proteins therein were quantified by bicinchoninic acid (BCA) assay, and normalized. […]
10 μg of the extracted proteins were subjected to gel electrophoresis with 10% acrylamide gel, and electrophoretic transferred onto a PVDF membrane, which were blocked, and incubated with a primary antibody at 4° C. overnight, free primary antibody was washed away. […] Target proteins were detected by chemiluminescence.

For series [4], the system named is IL-6, MMP-1, ICAM-1 and PAI-1 mRNA in human aortic endothelial cells. As to the kind of experiment: mRNA levels of IL-6, MMP-1, ICAM-1 and PAI-1 (RT-PCR) in palmitic acid-induced inflammation of HAECs. The format is cell-based. As to the method: (§4) Human aortic endothelial cells (HAECs) were purchased from Shanghai Shanghai Bioleaf Biotech Co., Ltd. Palmitic acid (PA) was purchased from SIGMA Company. A palmitic acid solution having a concentration of 500 μM was prepared by dissolving palmitic acid in water. A cell culture incubator was adopted to culture the cells in a temperature-constant, humidified, sterile condition. The cells were cultured in wells of culture plates at an atmosphere of 95% air and 5% CO2 at 37° C. in the incubator. The experiments were performed on different experimental groups of cells. The experiments were performed on three experimental groups of cells: (1) control group; (2) 500 μM palmitic acid treatment group; and (3) hydroxytyrosol acetate protection group.
The HAECs that were previously cultured in a 12-well cell culture plate were divided into 5 different experimental groups and respectively applied with hydroxytyrosol acetate in respective concentrations, 0 μM, 0 μM, 10 μM, 50 μM, and 100 μM, all followed with an 24-hour incubation. Then, the last 4 groups of cells were respectively applied with 500 μM palmitic acid, the first was not, all followed with another 24-hour incubation. The detecting of mRNA levels corresponding to interleukin-6 (IL-6), matrix metalloproteinase-1 (MMP-1), intercellular adhesion molecule-1 (ICAM-1) and plasma plasminogen activator inhibitor-1 (PAI-1) were respectively carried out on each group of cells by using reverse transcription RNA and real-time quantitative polymerase chain reaction (PCR), and the specific method is as follows:
The medium for cell culture in the wells was removed. 500 μL of TRIzol™ reagent was added to each well, and the culture plate was then shaken at room temperature for 5 minutes. Then the cells in the wells were collected and transferred to a 1.5 mL Eppendorf® (EP) tube. 200 μl (taking ⅕ of total volume of the substance in the EP tube) of chloroform was then added to the EP tube for extraction of protein. […] The concentration of the solution was measured by an ultraviolet spectrophotometer. […]

Series [5] deals with reactive oxygen species in human aortic endothelial cells. As to the kind of experiment: Detection of reactive oxygen species (H2DCF-DA) in HAECs. The format is cell-based. As to the method: as §4
The cultured HAECs were divided into 3 different experimental groups, the control (Ctrl) group, the PA group, and the hydroxytyrosol acetate+PA (HTac+PA) group. The cells of the HTac+PA group were applied with hydroxytyrosol acetate in a concentration of 100 μM followed with a 24-hour incubation. Then, the cells of both the PA group and the HTac+PA group were applied with 500 μM palmitic acid, all followed with another 24-hour incubation.
After treating the cells with hydroxytyrosol acetate and palmitic acid, and discarding the medium, the cells were rinsed once with PBS. […] The supernatant was collected and measured by a microplate reader.

The subject of series [6] is human aortic endothelial cells (HAECs). Kind of series: MTT assay, relative cell viability of human aortic endothelial cells. The format is cell-based. As to the method: as §4
The HAECs that were previously cultured in a 12-well cell culture plate were divided into 4 different experimental groups and respectively applied with hydroxytyrosol acetate in different concentrations, 0 μM, 10 μM, 50 μM, and 100 μM, all followed with an 24-hour incubation. […]
An MTT assay was performed to all groups of cells. […] The absorbance was measured at a wavelength of 490 nm in a spectrophotometer. The absorbance of this colored solution can be quantified by measuring at a certain wavelength (usually between 500 and 600 nm) by a spectrophotometer.

The mark [7] stands for this setting: 100 μM, 24 h pre-treatment, then 500 μM palmitic acid 24 h.

As for `CCCCCCCCCCCCCCCC(=O)O` [palmitic acid, reference compound], in series [1], the “increase of mRNA level corresponding to MMP-1 versus control” value is on record as “about 10 times”. For the same compound, in series [2], the “increase of mRNA level corresponding to IL-6 versus control” value is given as “about 20 times”. The “expression of mitochondrial membrane fusion-related proteins Mfn1, Mfn2” value in series [3] (500 μM palmitic acid, 24 h) was “reducing”. Further, the “inflammatory cytokines IL-6, MMP-1, ICAM-1 and PAI-1 versus control group” value in series [4] (500 μM palmitic acid, 24 h) was “significantly higher”. Also, in series [5] (500 μM palmitic acid, 24 h), the “production of reactive oxygen species ROS” value is reported as “a large amount”.

Regarding hydroxytyrosol acetate, the “proliferation of human aortic endothelial cells” value in series [6] (100 μM hydroxytyrosol acetate, 24 h) is recorded as “promoted”. In series [6] (HAECs, 0-100 μM, FIG. 1), the “toxic and side effects on human aortic endothelial cells” value is “no toxic and side effects”. In addition, in series [3] (setting [7]), the “expression of Mfn2” value is listed as “significantly increasing”. In series [4] (50 μM, 24 h pre-treatment, then 500 μM palmitic acid 24 h), the “inhibition of the palmitic acid-induced inflammatory response (mRNA IL-6, MMP-1, ICAM-1, PAI-1)” value is recorded as “significant inhibition”. Besides, the “inhibitory effect on the palmitic acid-induced inflammatory response (mRNA IL-6, MMP-1, ICAM-1, PAI-1)” value in series [4] (100 μM, 24 h pre-treatment, then 500 μM palmitic acid 24 h, compared with 50 μM) was “more obvious”. In series [5] (setting [7]), the “production of excessive reactive oxygen species induced by palmitic acid” value was “significantly inhibit”.

The record behind these values is US20200397718A1, “USE OF HYDROXYTYROSOL ACETATE IN IMPROVING FUNCTION OF AORTIC ENDOTHELIAL CELL” (XI'AN JIAOTONG UNIVERSITY, priority 2019, published 2020).
